Laboratory results published in ChEMBL document CHEMBL5291721, “A preclinical secondary pharmacology resource illuminates target-adverse drug reaction associations of marketed drugs” (Nat Commun, 2023).

Legend:
[1] = molecular target: Glutamate receptor ionotropic, NMDA 1 (Rattus norvegicus, UniProt P35439)
Histamine H3 receptor = Histamine H3 receptor (Homo sapiens, UniProt Q9Y5N1)
Progesterone receptor = molecular target: T1, Progesterone receptor (Homo sapiens, UniProt P06401); type: functional
T1 sequence (P06401 whole entry): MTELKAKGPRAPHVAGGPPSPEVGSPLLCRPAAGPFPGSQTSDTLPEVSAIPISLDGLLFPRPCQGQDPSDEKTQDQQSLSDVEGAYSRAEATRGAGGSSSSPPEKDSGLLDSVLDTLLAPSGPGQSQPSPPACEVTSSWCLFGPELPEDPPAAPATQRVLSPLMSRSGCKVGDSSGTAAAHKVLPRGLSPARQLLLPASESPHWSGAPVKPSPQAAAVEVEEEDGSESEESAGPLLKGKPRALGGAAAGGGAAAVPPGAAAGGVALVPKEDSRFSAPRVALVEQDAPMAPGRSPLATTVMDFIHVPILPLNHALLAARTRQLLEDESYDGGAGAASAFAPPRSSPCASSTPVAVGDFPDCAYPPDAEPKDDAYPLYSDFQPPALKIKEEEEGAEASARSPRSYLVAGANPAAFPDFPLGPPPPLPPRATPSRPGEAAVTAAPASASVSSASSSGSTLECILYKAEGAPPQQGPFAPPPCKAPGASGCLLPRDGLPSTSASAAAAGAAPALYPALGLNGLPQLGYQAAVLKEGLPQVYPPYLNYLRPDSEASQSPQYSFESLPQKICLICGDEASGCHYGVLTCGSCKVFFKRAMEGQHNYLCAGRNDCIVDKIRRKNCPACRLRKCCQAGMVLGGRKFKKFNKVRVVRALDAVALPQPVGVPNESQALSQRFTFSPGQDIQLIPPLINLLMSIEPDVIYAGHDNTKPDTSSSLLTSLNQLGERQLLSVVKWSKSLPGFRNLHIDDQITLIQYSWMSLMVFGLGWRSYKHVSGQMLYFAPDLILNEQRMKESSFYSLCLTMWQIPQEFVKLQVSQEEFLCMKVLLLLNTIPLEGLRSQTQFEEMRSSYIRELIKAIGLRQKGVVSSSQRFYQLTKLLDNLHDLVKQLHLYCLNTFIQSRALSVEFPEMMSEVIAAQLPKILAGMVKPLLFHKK

[2] = molecular target: T2, Alpha-1A adrenergic receptor (Homo sapiens, UniProt P35348)
T2 sequence (P35348 whole entry): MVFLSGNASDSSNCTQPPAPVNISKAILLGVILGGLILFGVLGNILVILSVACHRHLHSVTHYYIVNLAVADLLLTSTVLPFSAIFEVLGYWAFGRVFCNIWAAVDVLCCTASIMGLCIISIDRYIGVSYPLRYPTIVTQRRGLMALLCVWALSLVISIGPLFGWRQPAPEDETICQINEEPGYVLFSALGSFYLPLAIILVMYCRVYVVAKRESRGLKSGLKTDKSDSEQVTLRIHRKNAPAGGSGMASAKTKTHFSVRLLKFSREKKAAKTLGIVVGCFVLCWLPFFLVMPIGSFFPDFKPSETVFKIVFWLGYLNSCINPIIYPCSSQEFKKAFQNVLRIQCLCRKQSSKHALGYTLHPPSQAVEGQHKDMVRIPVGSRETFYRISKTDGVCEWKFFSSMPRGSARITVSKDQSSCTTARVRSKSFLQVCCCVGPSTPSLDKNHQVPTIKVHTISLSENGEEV

[3] = molecular target: Sodium-dependent noradrenaline transporter (Homo sapiens, UniProt P23975)
D(1A) dopamine receptor = D(1A) dopamine receptor (Homo sapiens, UniProt P21728)
Adenosine receptor A3 = molecular target: T3, Adenosine receptor A3 (Homo sapiens, UniProt P0DMS8)
T3 sequence (P0DMS8 whole entry): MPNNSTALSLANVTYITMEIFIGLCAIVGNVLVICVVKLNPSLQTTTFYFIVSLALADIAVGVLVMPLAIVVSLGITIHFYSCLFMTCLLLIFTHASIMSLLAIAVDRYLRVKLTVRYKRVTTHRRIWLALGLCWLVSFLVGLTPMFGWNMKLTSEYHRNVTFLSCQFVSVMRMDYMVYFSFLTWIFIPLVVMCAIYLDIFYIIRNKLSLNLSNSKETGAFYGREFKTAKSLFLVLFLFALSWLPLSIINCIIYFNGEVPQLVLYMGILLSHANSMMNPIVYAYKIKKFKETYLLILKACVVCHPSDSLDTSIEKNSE

[4] = molecular target: T4, 5-hydroxytryptamine receptor 2B (Homo sapiens, UniProt P41595); type: functional, cell-based
[5] = molecular target: Sodium-dependent dopamine transporter (Homo sapiens, UniProt Q01959)
[6] = molecular target: T5, 5-hydroxytryptamine receptor 1A (Homo sapiens, UniProt P08908)
T5 sequence (P08908 whole entry): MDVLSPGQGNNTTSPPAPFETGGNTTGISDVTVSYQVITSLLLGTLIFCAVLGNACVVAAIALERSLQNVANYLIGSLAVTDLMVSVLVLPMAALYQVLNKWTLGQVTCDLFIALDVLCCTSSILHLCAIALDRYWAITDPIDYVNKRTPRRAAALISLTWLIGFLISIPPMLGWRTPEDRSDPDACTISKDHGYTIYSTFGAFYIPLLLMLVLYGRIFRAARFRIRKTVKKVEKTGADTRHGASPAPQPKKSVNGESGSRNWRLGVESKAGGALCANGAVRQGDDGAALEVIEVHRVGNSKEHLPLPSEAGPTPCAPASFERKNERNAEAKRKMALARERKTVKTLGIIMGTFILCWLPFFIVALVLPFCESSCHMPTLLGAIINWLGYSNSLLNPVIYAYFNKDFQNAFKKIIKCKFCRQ

[7] = molecular target: T2, Alpha-1A adrenergic receptor; type: functional, cell-based
[8] = molecular target: Muscarinic acetylcholine receptor M3 (Homo sapiens, UniProt P20309)
[9] = molecular target: T5, 5-hydroxytryptamine receptor 1A; type: functional, cell-based
[10] = molecular target: T4, 5-hydroxytryptamine receptor 2B; type: functional, cell-based; remark: listed apart in the source
Further: assay procedure not described here.

Sodium-dependent dopamine transporter, sequence (Q01959 whole entry): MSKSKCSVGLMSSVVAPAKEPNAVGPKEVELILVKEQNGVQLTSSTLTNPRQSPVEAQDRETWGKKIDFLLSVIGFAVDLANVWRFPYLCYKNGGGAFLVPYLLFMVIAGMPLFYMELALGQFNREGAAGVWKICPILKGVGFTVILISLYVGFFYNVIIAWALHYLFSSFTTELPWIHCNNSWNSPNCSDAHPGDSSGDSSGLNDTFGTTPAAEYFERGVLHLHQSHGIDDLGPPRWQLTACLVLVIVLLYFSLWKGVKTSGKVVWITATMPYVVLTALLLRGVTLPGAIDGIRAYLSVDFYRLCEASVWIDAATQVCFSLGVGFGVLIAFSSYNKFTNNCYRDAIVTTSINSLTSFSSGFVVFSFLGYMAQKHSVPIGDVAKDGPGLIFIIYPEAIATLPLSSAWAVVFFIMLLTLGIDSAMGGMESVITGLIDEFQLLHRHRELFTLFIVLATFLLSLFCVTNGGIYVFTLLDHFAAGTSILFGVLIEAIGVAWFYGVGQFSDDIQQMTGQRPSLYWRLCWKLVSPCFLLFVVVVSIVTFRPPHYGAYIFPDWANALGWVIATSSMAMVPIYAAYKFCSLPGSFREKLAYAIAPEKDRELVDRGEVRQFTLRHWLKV
Histamine H3 receptor, sequence (Q9Y5N1 whole entry): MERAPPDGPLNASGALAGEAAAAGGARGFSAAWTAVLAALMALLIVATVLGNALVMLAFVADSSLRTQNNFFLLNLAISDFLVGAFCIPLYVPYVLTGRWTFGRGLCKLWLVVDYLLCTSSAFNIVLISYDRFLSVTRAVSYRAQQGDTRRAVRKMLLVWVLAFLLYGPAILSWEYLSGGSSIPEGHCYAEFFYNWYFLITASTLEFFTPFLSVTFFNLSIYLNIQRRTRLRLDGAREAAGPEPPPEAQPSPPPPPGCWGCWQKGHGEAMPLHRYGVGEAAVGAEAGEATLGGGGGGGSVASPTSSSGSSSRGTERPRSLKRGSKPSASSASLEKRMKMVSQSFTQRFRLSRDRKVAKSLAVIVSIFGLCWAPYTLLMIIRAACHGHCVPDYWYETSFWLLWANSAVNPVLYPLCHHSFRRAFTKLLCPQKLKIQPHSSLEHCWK
T4 sequence (P41595 whole entry): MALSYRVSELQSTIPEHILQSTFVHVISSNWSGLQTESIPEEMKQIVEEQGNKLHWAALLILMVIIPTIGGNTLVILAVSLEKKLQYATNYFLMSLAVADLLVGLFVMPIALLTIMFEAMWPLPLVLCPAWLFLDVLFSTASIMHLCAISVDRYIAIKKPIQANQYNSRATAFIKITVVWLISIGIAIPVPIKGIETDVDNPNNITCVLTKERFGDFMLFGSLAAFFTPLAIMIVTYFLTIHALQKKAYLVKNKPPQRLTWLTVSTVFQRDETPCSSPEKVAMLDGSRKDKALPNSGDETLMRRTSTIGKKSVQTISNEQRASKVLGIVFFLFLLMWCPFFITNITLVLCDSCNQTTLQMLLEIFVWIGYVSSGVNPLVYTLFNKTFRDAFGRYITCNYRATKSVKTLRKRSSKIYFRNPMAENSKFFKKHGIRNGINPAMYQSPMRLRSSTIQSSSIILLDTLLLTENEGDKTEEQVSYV
Muscarinic acetylcholine receptor M3, sequence (P20309 whole entry): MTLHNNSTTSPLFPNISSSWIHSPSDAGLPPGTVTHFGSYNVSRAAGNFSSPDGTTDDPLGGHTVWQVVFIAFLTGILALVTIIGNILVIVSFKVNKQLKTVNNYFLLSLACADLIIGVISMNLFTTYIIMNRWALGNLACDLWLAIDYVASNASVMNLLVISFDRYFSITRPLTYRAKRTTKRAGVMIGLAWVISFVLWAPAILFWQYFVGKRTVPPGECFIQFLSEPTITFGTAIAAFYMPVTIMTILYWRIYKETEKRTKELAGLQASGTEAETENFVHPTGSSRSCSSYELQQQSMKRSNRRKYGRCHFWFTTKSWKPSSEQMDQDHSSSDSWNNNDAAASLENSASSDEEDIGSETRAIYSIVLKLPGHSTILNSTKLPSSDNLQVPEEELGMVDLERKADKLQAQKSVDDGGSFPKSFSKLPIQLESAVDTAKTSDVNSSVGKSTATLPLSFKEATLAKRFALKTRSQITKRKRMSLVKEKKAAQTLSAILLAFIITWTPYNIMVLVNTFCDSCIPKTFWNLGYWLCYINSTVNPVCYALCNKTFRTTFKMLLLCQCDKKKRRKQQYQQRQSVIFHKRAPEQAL
Sodium-dependent noradrenaline transporter, sequence (P23975 whole entry): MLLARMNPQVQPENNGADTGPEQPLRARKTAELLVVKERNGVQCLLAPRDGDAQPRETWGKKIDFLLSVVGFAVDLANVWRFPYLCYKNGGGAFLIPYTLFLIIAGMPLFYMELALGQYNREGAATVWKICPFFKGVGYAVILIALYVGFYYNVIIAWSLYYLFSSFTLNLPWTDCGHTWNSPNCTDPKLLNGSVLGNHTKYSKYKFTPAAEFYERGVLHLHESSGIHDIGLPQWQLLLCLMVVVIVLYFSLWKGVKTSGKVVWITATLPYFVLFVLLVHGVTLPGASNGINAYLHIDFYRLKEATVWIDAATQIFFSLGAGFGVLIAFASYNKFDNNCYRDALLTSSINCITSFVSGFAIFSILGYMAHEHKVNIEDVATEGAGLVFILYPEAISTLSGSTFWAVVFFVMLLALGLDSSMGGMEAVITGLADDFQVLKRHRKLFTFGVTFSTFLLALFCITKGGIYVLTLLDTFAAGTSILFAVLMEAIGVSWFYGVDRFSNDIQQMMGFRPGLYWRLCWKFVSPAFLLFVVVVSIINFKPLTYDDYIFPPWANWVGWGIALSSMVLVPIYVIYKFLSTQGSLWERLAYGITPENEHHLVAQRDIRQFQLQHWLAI
D(1A) dopamine receptor, sequence (P21728 whole entry): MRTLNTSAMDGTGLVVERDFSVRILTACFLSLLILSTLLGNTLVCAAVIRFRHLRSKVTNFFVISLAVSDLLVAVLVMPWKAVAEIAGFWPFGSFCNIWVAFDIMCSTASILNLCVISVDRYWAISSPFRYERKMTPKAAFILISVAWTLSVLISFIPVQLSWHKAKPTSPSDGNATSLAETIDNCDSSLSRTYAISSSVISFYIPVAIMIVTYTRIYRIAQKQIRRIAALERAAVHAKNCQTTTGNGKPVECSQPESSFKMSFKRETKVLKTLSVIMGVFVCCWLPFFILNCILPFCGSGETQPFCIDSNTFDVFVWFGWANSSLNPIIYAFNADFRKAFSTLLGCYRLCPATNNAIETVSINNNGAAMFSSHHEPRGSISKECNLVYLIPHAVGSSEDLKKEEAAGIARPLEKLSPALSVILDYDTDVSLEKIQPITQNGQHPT

AC50 [2] | Compound | AC50 [1] | AC50 (Histamine H3 receptor) | AC50 (Progesterone receptor) | AC50 [3] | AC50 (D(1A) dopamine receptor) | AC50 (Adenosine receptor A3) | AC50 [4] | AC50 [5] | AC50 [6] | AC50 [7] | AC50 [8] | AC50 [9] | AC50 [10]
1.78 µM | CCCN1C[C@H](CSC)C[C@@H]2c3cccc4[nH]cc(c34)C[C@H]21 [PERGOLIDE] | > 10 µM | > 30 µM | > 30 µM |  |  |  |  |  |  |  |  |  | 
 | CN(C)S(=O)(=O)c1ccc2c(c1)N(CCCN1CCC(CCO)CC1)c1ccccc1S2 [PIPOTIAZINE] |  |  |  | 12 µM | 0.0201 µM | > 30 µM | > 30 µM | 8.9 µM | 0.32 µM | > 30 µM |  |  | 
 | CC[C@H]1[C@@H](O)[C@@H]2[C@H](CC[C@]3(C)[C@@H]([C@H](C)CCC(=O)O)CC[C@@H]23)[C@@]2(C)CC[C@@H](O)C[C@@H]12 [OBETICHOLIC ACID] | > 30 µM | > 30 µM | > 30 µM | > 30 µM | > 30 µM | > 30 µM | > 30 µM | > 30 µM | > 30 µM | > 30 µM | > 30 µM |  | 
 | CC(C)(S)[C@@H](N)C(=O)O [PENICILLAMINE] |  |  |  | > 30 µM | > 30 µM | > 30 µM | > 30 µM | > 30 µM | > 30 µM | > 30 µM |  |  | 
 | CC(C)Nc1ncccn1 [ISAXONINE] |  |  |  | > 30 µM | > 30 µM | > 30 µM | > 30 µM | > 30 µM | > 30 µM | > 30 µM |  |  | 
5.78 µM | CC1=C(C(=O)O)N2C(=O)[C@@H](NC(=O)[C@H](N)c3ccccc3)[C@H]2SC1 [CEPHALEXIN ANHYDROUS] | > 10 µM | > 10 µM |  |  |  |  |  |  |  |  |  | > 10 µM | 
 | C=CCc1ccccc1OCC(O)CNC(C)C (stereo unspecified) [ALPRENOLOL] | > 30 µM | > 30 µM | > 30 µM | > 0.3 µM | > 0.3 µM | > 0.3 µM | > 0.3 µM | > 0.3 µM | 0.0146 µM | > 0.3 µM | > 30 µM | 4.8 µM | 16 µM
 | O=C(OCC(O)CO)c1ccccc1Nc1ccnc2cc(Cl)ccc12 (stereo unspecified) [GLAFENINE] |  | > 30 µM | > 30 µM | 17 µM | > 30 µM | 1.4 µM | > 30 µM | > 30 µM | > 30 µM | > 30 µM | > 30 µM | > 30 µM | > 30 µM
 | CC(=O)N[C@@H]1[C@@H](O)[C@H](O)[C@@H](CO)O[C@H]1O [N-ACETYLGLUCOSAMINE] |  |  |  | > 30 µM | > 30 µM | > 30 µM | > 30 µM | > 30 µM | > 30 µM | > 30 µM |  |  | 
 | CCOC(=O)[C@H](CCc1ccccc1)N[C@@H](C)C(=O)N1[C@H](C(=O)O)C[C@H]2CCCC[C@@H]21 [TRANDOLAPRIL] |  |  |  | > 30 µM | > 30 µM | > 30 µM | > 30 µM | > 30 µM | > 30 µM | > 30 µM |  |  | 
 | CC(=O)Nc1ccc(O)cc1 [ACETAMINOPHEN] |  | > 30 µM | > 30 µM | > 30 µM |  | > 30 µM | > 30 µM | > 30 µM | > 30 µM | > 30 µM |  | > 30 µM | > 30 µM
 | CCC1=C(C)CN(C(=O)NCCc2ccc(S(=O)(=O)NC(=O)N[C@H]3CC[C@H](C)CC3)cc2)C1=O [GLIMEPIRIDE] |  |  |  | > 30 µM | > 30 µM | > 30 µM | > 30 µM | > 30 µM | > 30 µM | > 30 µM |  |  | 
 | CC(C)(C)NC[C@H](O)COc1ccccc1C1CCCC1 [PENBUTOLOL] |  |  |  | 13.4 µM | 27.8 µM | > 30 µM | > 30 µM | > 30 µM | 0.0036 µM | > 30 µM |  |  | 
 | N[C@H](C(=O)O)[C@H](O)c1ccc(O)c(O)c1 [DROXIDOPA] |  |  |  | > 30 µM | > 30 µM | > 30 µM | > 30 µM | > 30 µM | > 30 µM | 10.4 µM |  |  | 
 | CCC(=O)NCC[C@@H]1CCc2ccc3c(c21)CCO3 [RAMELTEON] |  |  |  | > 30 µM | > 30 µM | > 30 µM | > 30 µM | > 30 µM | > 30 µM | > 30 µM |  |  | 
 | CN(C)[C@@H](c1cccc(O)c1)[C@H]1CCCC[C@H]1O [CIRAMADOL] |  |  |  | > 30 µM | > 30 µM | > 30 µM | > 30 µM | 29.6 µM | > 30 µM | > 30 µM |  |  | 
 | O=C(CCNNC(=O)c1ccncc1)NCc1ccccc1 [NIALAMIDE] |  |  |  | > 30 µM | > 30 µM | > 30 µM | > 30 µM | > 30 µM | > 30 µM | > 30 µM |  |  | 
 | O=C(O)c1cc(O)ccc1O [GENTISIC ACID] |  |  |  | > 30 µM | > 30 µM | > 30 µM | > 30 µM | > 30 µM | > 30 µM | > 30 µM |  |  | 
 | C[C@]12CC[C@@H]3c4ccc(O)cc4CC[C@H]3[C@@H]1C[C@@H](O)[C@@H]2O [ESTRIOL] |  |  |  | > 30 µM | > 30 µM | > 30 µM | > 30 µM | 28.7 µM | > 30 µM | > 30 µM |  |  | 
 | Oc1c(Cl)cc(Cl)c2cccnc12 [CHLOROXINE] |  |  |  | 5.19 µM | > 30 µM | > 30 µM | > 30 µM | > 30 µM | 17.2 µM | > 30 µM |  |  | 
 | CC[N+]1(C)[C@@H]2CC(OC(=O)[C@H](CO)c3ccccc3)C[C@H]1[C@@H]1O[C@@H]12 (stereo partly specified) [OXITROPIUM] |  |  |  | > 30 µM | > 30 µM | > 30 µM | > 30 µM | > 30 µM | > 30 µM | > 30 µM |  |  | 
 | N[C@@H](C(=O)N[C@@H]1C(=O)N2C(C(=O)O)=C(Cl)CC[C@H]12)c1ccccc1 [LORACARBEF ANHYDROUS] |  |  |  | > 30 µM | > 30 µM | > 30 µM | > 30 µM | > 30 µM | > 30 µM | > 30 µM |  |  | 
